Source: patent US4570000A, “Nitrogen heterocycles” (Imperial Chemical Industries, PLC, priority 1981, dated 1986)

What was measured:
anaesthetised rats = experiment: intravenous toxicity in anaesthetised rats; format: in vivo; conditions: two anaesthetised rats, ten times the dose giving approximate 50% inhibition of gastric secretion in the anaesthetised rat
Experimental: (§1) No overt toxicity or side effects were noted during the rat or dog tests. The compound 1-[3-(4-[2-(2,2,2-trifluoroethyl)guanidino]pyrimid-2-yloxy)propyl]imidazole was administered intravenously to groups of two anaesthetised rats and four conscious mice at doses which were respectively ten times and one hundred times the dose, in mg./kg., which produced an approximate 50% inhibition of gastric secretion in the anaesthetised rat.

conscious mice = experiment: intravenous toxicity in conscious mice; format: in vivo; conditions: four conscious mice, one hundred times the dose giving approximate 50% inhibition of gastric secretion in the anaesthetised rat
Experimental: as §1

Structure (SMILES): NC(=NCC(F)(F)F)Nc1ccnc(OCCCn2ccnc2)n1 [Example 6, 1-[3-(4-[2-(2,2,2-trifluoroethyl)guanidino]pyrimid-2-yloxy)propyl]imidazole]
- toxic symptoms (anaesthetised rats): No toxic symptoms
- toxic symptoms (conscious mice): No toxic symptoms
